Results published in ChEMBL document CHEMBL1146447, “Evaluation of the antifungal activity of natural xanthones from Garcinia mangostana and their synthetic derivatives” (1997).

Experiments:
Format in all cases: functional
Alternaria alternata [1] = assay: Antifungal activity against Alternaria tenuis at 1 ppm after 168 hrs at 24 hrs intervals
Alternaria alternata [2] = assay: Antifungal activity against Alternaria tenuis at 1000 ppm after 168 hrs at 24 hrs intervals
[3] = test system: Fusarium oxysporum f. sp. vasinfectum; assay: Antifungal activity against Fusarium oxysporum vasinfectum at 10 ppm after 144 hrs at 24 hrs intervals
Drechslera [4] = assay: Antifungal activity against Drechslera oryzae at 100 ppm after 168 hrs at 24 hrs intervals
[5] = test system: Fusarium oxysporum f. sp. vasinfectum; assay: Antifungal activity against Fusarium oxysporum vasinfectum at 1000 ppm after 144 hrs at 24 hrs intervals
Drechslera [6] = assay: Antifungal activity against Drechslera oryzae at 1 ppm after 168 hrs at 24 hrs intervals
Drechslera [7] = assay: Antifungal activity against Drechslera oryzae at 1000 ppm after 168 hrs at 24 hrs intervals
[8] = test system: Fusarium oxysporum f. sp. vasinfectum; assay: Antifungal activity against Fusarium oxysporum vasinfectum at 1 ppm after 144 hrs at 24 hrs intervals
Alternaria alternata [9] = assay: Antifungal activity against Alternaria tenuis at 10 ppm after 168 hrs at 24 hrs intervals
Drechslera [10] = assay: Antifungal activity against Drechslera oryzae at 10 ppm after 168 hrs at 24 hrs intervals
Alternaria alternata [11] = assay: Antifungal activity against Alternaria tenuis at 100 ppm after 168 hrs at 24 hrs intervals
[12] = test system: Fusarium oxysporum f. sp. vasinfectum; assay: Antifungal activity against Fusarium oxysporum vasinfectum at 100 ppm after 144 hrs at 24 hrs intervals

| Compound | inhibition at 1 ppm (Alternaria alternata [1]) [%] | inhibition at 1000 ppm (Alternaria alternata [2]) [%] | inhibition at 10 ppm [3] [%] | inhibition at 100 ppm (Drechslera [4]) [%] | inhibition at 1000 ppm [5] [%] | inhibition at 1 ppm (Drechslera [6]) [%] | inhibition at 1000 ppm (Drechslera [7]) [%] | inhibition at 1 ppm [8] [%] | inhibition at 10 ppm (Alternaria alternata [9]) [%] | inhibition at 10 ppm (Drechslera [10]) [%] | inhibition at 100 ppm (Alternaria alternata [11]) [%] | inhibition at 100 ppm [12] [%] |
| --- | --- | --- | --- | --- | --- | --- | --- | --- | --- | --- | --- | --- |
| CC(C)=CCc1c(O)cc2oc3cc(O)c(O)c(CC=C(C)C)c3c(=O)c2c1O | 1 | 58 | 6 | 81 | 64 | 5 | 85 | 0 | 9 | 35 | 33 | 50 |
| COc1c(OC(C)C)cc2oc3cc(OC(C)C)c(CC=C(C)C)c(O)c3c(=O)c2c1CC=C(C)C | -10 | 1 | 1 | 1 | 3 | -1 | 9 | 3 | 2 | 4 | -1 | 4 |
| C=CCOc1cc2oc3cc(OCC=C)c(OC)c(CC=C(C)C)c3c(=O)c2c(O)c1CC=C(C)C | -22 | 42 | 1 | -4 | 1 | -19 | -34 | 0 | -13 | -18 | 8 | 4 |
| COc1c(O)cc2oc3cc4c(c(O)c3c(=O)c2c1CC=C(C)C)CCC(C)(C)O4 | 11 | 31 | 8 | 58 | 18 | 29 | 61 | 4 | 15 | 45 | 28 | 19 |
| COc1cc2oc3cc(OC)c(OC)c(CC=C(C)C)c3c(=O)c2c(O)c1CC=C(C)C | 14 | 16 | 12 | 27 | 17 | 7 | 41 | 5 | 22 | 9 | 16 | 16 |
| CCCOc1cc2oc3cc(OCCC)c(OC)c(CC=C(C)C)c3c(=O)c2c(O)c1CC=C(C)C | -6 | 1 | 5 | -36 | -2 | 8 | -10 | -4 | -3 | -25 | -2 | -6 |
| COc1c(OC(C)=O)cc2oc3cc(OC(C)=O)c(CC=C(C)C)c(O)c3c(=O)c2c1CC=C(C)C | 8 | -6 | 5 | 11 | 3 | 11 | 14 | 6 | 6 | 51 | 6 | 4 |
| CCCCOc1cc2oc3cc(OCCCC)c(OC)c(CC=C(C)C)c3c(=O)c2c(O)c1CC=C(C)C | 1 | -5 | -4 | -66 | -3 | -38 | -69 | -7 | 4 | -38 | -2 | -4 |
| S=c1c2ccccc2oc2ccccc12 | -6 | -32 | 4 | -11 | 6 | 11 | 10 | 2 | -12 | 5 | -22 | 4 |
| C=C(C)COc1cc2oc3cc(OCC(=C)C)c(OC)c(CC=C(C)C)c3c(=O)c2c(O)c1CC=C(C)C | -8 | -1 | 2 | -1 | 9 | -1 | 17 | 1 | -2 | -1 | 4 | 3 |
| CCOc1cc2oc3cc(OCC)c(OC)c(CC=C(C)C)c3c(=O)c2c(O)c1CC=C(C)C | -4 | -1 | -2 | -31 | -1 | -72 | -57 | -3 | 4 | -34 | -11 | -3 |
| CC1(C)CCc2c(cc3oc4cc(O)c5c(c4c(=O)c3c2O)CCC(C)(C)O5)O1 [BR-XANTHONE A] | 14 | 14 | 0 | 31 | 3 | 27 | 36 | 3 | 18 | 28 | 15 | 0 |
| COc1c(O)cc2oc3cc(O)c(CC=C(C)C)c(O)c3c(=O)c2c1CCC(C)(C)O [GARCINONE D] | -7 | 26 | 10 | 43 | 41 | 27 | 64 | -1 | 2 | 30 | -11 | 12 |
| CC(C)=CCc1c(O)c(CC=C(C)C)c2oc3c(O)ccc(O)c3c(=O)c2c1O [GARTANIN] | 4 | 29 | 4 | 75 | 12 | 18 | 71 | 3 | 20 | 54 | 22 | 9 |
| COc1c(O)cc2oc3cc(O)c(CC=C(C)C)c(O)c3c(=O)c2c1CC=C(C)C [MANGOSTIN] | 17 | 41 | 22 | 54 | 24 | 55 | 53 | 11 | 38 | 51 | 39 | 29 |
| O=c1c2ccccc2oc2ccccc12 [XANTHONE] | -43 | -14 | 8 | 34 | 6 | 19 | 3 | -2 | 5 | 29 | -6 | 1 |
